Values after ≈ are worked out from the molar mass of the structure shown.
How the values were obtained:
Type in all cases: functional
[1] = system: Streptococcus pneumoniae; assay: Antimicrobial activity against Streptococcus pneumoniae clinical isolates by broth microdilution method
[2] = system: Streptococcus pneumoniae; assay: Antimicrobial activity against penicillin-susceptible Streptococcus pneumoniae clinical isolates by broth microdilution method
[3] = system: Streptococcus pneumoniae; assay: Antimicrobial activity against penicillin-intermediate Streptococcus pneumoniae clinical isolates by broth microdilution method
[4] = system: Streptococcus pneumoniae; assay: Antimicrobial activity against penicillin-resistant Streptococcus pneumoniae clinical isolates by broth microdilution method
[5] = system: Streptococcus pneumoniae; assay: Antimicrobial activity against Streptococcus pneumoniae clinical isolates assessed as percent susceptible isolates by broth microdilution method
[6] = system: Streptococcus pneumoniae; assay: Antimicrobial activity against penicillin-susceptible Streptococcus pneumoniae clinical isolates assessed as percent susceptible isolates by broth microdilution method
[7] = system: Streptococcus pneumoniae; assay: Antimicrobial activity against penicillin-intermediate Streptococcus pneumoniae clinical isolates assessed as percent susceptible isolates by broth microdilution method
[8] = system: Streptococcus pneumoniae; assay: Antimicrobial activity against penicillin-resistant Streptococcus pneumoniae clinical isolates assessed as percent susceptible isolates by broth microdilution method
[9] = system: Streptococcus pneumoniae; assay: Antimicrobial activity against Streptococcus pneumoniae clinical isolates assessed as resistant isolates by broth microdilution method
[10] = system: Streptococcus pneumoniae; assay: Antimicrobial activity against penicillin-susceptible Streptococcus pneumoniae clinical isolates assessed as resistant isolates by broth microdilution method
[11] = system: Streptococcus pneumoniae; assay: Antimicrobial activity against penicillin-intermediate Streptococcus pneumoniae clinical isolates assessed as resistant isolates by broth microdilution method
[12] = system: Streptococcus pneumoniae; assay: Antimicrobial activity against penicillin-resistant Streptococcus pneumoniae clinical isolates assessed as resistant isolates by broth microdilution method
[13] = system: Enterococcus faecium; assay: Antimicrobial activity against Enterococcus faecium expressing VanB gene clinical isolates assessed as percent susceptible isolates by broth microdilution method
[14] = system: Enterococcus faecium; assay: Antimicrobial activity against Enterococcus faecium expressing VanA gene clinical isolates assessed as percent susceptible isolates by broth microdilution method
[15] = system: Enterococcus faecium; assay: Antimicrobial activity against vancomycin-nonsusceptible Enterococcus faecium clinical isolates assessed as percent susceptible isolates by broth microdilution method
[16] = system: Enterococcus faecium; assay: Antimicrobial activity against vancomycin-susceptible Enterococcus faecium clinical isolates assessed as percent susceptible isolates by broth microdilution method
[17] = system: Enterococcus faecium; assay: Antimicrobial activity against Enterococcus faecium clinical isolates assessed as percent susceptible isolates by broth microdilution method
[18] = system: Enterococcus faecalis; assay: Antimicrobial activity against Enterococcus faecalis expressing VanB gene clinical isolates assessed as percent susceptible isolates by broth microdilution method
[19] = system: Enterococcus faecalis; assay: Antimicrobial activity against Enterococcus faecalis expressing VanA gene clinical isolates assessed as percent susceptible isolates by broth microdilution method
[20] = system: Enterococcus faecalis; assay: Antimicrobial activity against vancomycin-nonsusceptible Enterococcus faecalis clinical isolates assessed as percent susceptible isolates by broth microdilution method
[21] = system: Enterococcus faecalis; assay: Antimicrobial activity against vancomycin-susceptible Enterococcus faecalis clinical isolates assessed as percent susceptible isolates by broth microdilution method
[22] = system: Enterococcus faecalis; assay: Antimicrobial activity against Enterococcus faecalis clinical isolates assessed as percent susceptible isolates by broth microdilution method
[23] = system: Enterococcus faecium; assay: Antimicrobial activity against Enterococcus faecium expressing VanB gene clinical isolates assessed as resistant isolates by broth microdilution method
[24] = system: Enterococcus faecium; assay: Antimicrobial activity against Enterococcus faecium expressing VanA gene clinical isolates assessed as resistant isolates by broth microdilution method
[25] = system: Enterococcus faecium; assay: Antimicrobial activity against vancomycin-nonsusceptible Enterococcus faecium clinical isolates assessed as resistant isolates by broth microdilution method
[26] = system: Enterococcus faecium; assay: Antimicrobial activity against vancomycin-susceptible Enterococcus faecium clinical isolates assessed as resistant isolates by broth microdilution method
[27] = system: Enterococcus faecium; assay: Antimicrobial activity against Enterococcus faecium clinical isolates assessed as resistant isolates by broth microdilution method
[28] = system: Enterococcus faecalis; assay: Antimicrobial activity against Enterococcus faecalis expressing VanB gene clinical isolates assessed as resistant isolates by broth microdilution method
[29] = system: Enterococcus faecalis; assay: Antimicrobial activity against Enterococcus faecalis expressing VanA gene clinical isolates assessed as resistant isolates by broth microdilution method
[30] = system: Enterococcus faecalis; assay: Antimicrobial activity against vancomycin-nonsusceptible Enterococcus faecalis clinical isolates assessed as resistant isolates by broth microdilution method
[31] = system: Enterococcus faecalis; assay: Antimicrobial activity against vancomycin-susceptible Enterococcus faecalis clinical isolates assessed as resistant isolates by broth microdilution method
[32] = system: Enterococcus faecalis; assay: Antimicrobial activity against Enterococcus faecalis clinical isolates assessed as resistant isolates by broth microdilution method
[33] = system: Enterococcus faecium; assay: Antimicrobial activity against Enterococcus faecium expressing VanB gene clinical isolates by broth microdilution method
[34] = system: Enterococcus faecium; assay: Antimicrobial activity against Enterococcus faecium expressing VanA gene clinical isolates by broth microdilution method
[35] = system: Enterococcus faecium; assay: Antimicrobial activity against vancomycin-nonsusceptible Enterococcus faecium clinical isolates by broth microdilution method
[36] = system: Enterococcus faecium; assay: Antimicrobial activity against vancomycin-susceptible Enterococcus faecium clinical isolates by broth microdilution method
[37] = system: Enterococcus faecium; assay: Antimicrobial activity against Enterococcus faecium clinical isolates by broth microdilution method
[38] = system: Enterococcus faecalis; assay: Antimicrobial activity against Enterococcus faecalis expressing VanB gene clinical isolates by broth microdilution method
[39] = system: Enterococcus faecalis; assay: Antimicrobial activity against Enterococcus faecalis expressing VanA gene clinical isolates by broth microdilution method
[40] = system: Enterococcus faecalis; assay: Antimicrobial activity against vancomycin-nonsusceptible Enterococcus faecalis clinical isolates by broth microdilution method
[41] = system: Enterococcus faecalis; assay: Antimicrobial activity against vancomycin-susceptible Enterococcus faecalis clinical isolates by broth microdilution method
[42] = system: Enterococcus faecalis; assay: Antimicrobial activity against Enterococcus faecalis clinical isolates by broth microdilution method

## CO/N=C(\C(=O)N[C@@H]1C(=O)N2C(C(=O)OC(C)OC(C)=O)=C(COC(N)=O)CS[C@H]12)c1ccco1 (stereo partly specified) [CEFUROXIME AXETIL]
[1]
  MIC90: 4 µg/mL (≈ 7.84 µM)
[2]
  MIC: ≤ 0.12 µg/mL
  MIC90: ≤ 0.12 µg/mL
[3]
  MIC90: 4 µg/mL (≈ 7.84 µM)
[4]
  MIC90: > 4 µg/mL
[5]
  Activity: 75.9%
[6]
  Activity: 100%
[7]
  Activity: 56%
[8]
  Activity: 0%
[9]
  Resistant isolates: 18.9%
[10]
  Percent of isolates resistant: 0%
[11]
  Percent of isolates resistant: 20.4%
[12]
  Percent of isolates resistant: 99.3%

## CN[C@@H]1[C@H](O[C@H]2[C@H](O[C@H]3[C@H](O)[C@@H](O)[C@H](N=C(N)N)[C@@H](O)[C@@H]3N=C(N)N)O[C@@H](C)[C@]2(O)C=O)O[C@@H](CO)[C@H](O)[C@H]1O [STREPTOMYCIN]
[13]
  Activity: 34.5%
[14]
  Activity: 36.1%
[15]
  Activity: 36.5%
[16]
  Activity: 56%
[17]
  Activity: 44.8%
[18]
  Activity: 41.2%
[19]
  Activity: 49.2%
[20]
  Activity: 48.3%
[21]
  Activity: 71.3%
[22]
  Activity: 70.1%
[23]
  Activity: 65.5%
[24]
  Activity: 63.9%
[25]
  Activity: 63.5%
[26]
  Activity: 44%
[27]
  Activity: 55.2%
[28]
  Activity: 58.8%
[29]
  Activity: 50.8%
[30]
  Activity: 51.7%
[31]
  Activity: 28.7%
[32]
  Activity: 29.9%
[33]
  MIC: ≥ 1000 µg/mL
  MIC90: > 1000 µg/mL
[34]
  MIC: ≥ 1000 µg/mL
  MIC90: > 1000 µg/mL
[35]
  MIC: ≥ 1000 µg/mL
  MIC90: > 1000 µg/mL
[36]
  MIC: ≥ 1000 µg/mL
  MIC90: > 1000 µg/mL
[37]
  MIC: ≥ 1000 µg/mL
  MIC90: > 1000 µg/mL
[38]
  MIC: ≥ 1000 µg/mL
  MIC90: > 1000 µg/mL
[39]
  MIC: ≥ 1000 µg/mL
  MIC90: > 1000 µg/mL
[40]
  MIC: ≥ 1000 µg/mL
  MIC90: > 1000 µg/mL
[41]
  MIC: ≥ 1000 µg/mL
  MIC90: > 1000 µg/mL
[42]
  MIC: ≥ 1000 µg/mL
  MIC90: > 1000 µg/mL

## CO/N=C(\C(=O)N[C@@H]1C(=O)N2C(C(=O)O)=C(CSc3nc(=O)c(O)nn3C)CS[C@H]12)c1csc(N)n1 [CEFTRIAXONE]
[1]
  MIC90: 1 µg/mL (≈ 1.8 µM)
[2]
  MIC90: 0.03 µg/mL (≈ 0.0541 µM)
[3]
  MIC90: 0.5 µg/mL (≈ 0.902 µM)
[4]
  MIC90: 2 µg/mL (≈ 3.61 µM)
[5]
  Activity: 97%
[6]
  Activity: 100%
[7]
  Activity: 99.5%
[8]
  Activity: 80.4%
[9]
  Resistant isolates: 1.2%
[10]
  Percent of isolates resistant: 0%
[11]
  Percent of isolates resistant: 0.5%
[12]
  Percent of isolates resistant: 7.4%

## CC[C@H]1OC(=O)[C@H](C)C(=O)[C@H](C)[C@@H](O[C@@H]2O[C@H](C)C[C@H](N(C)C)[C@H]2O)[C@](C)(OC)C[C@@H](C)C(=O)[C@H](C)[C@H]2N(CCCCn3cnc(-c4cccnc4)c3)C(=O)O[C@]12C [TELITHROMYCIN]
[1]
  MIC90: 0.25 µg/mL (≈ 0.308 µM)
[2]
  MIC90: 0.015 µg/mL (≈ 0.0185 µM)
[3]
  MIC90: 0.25 µg/mL (≈ 0.308 µM)
[4]
  MIC90: 0.5 µg/mL (≈ 0.616 µM)
[5]
  Activity: 100%
[6]
  Activity: 100%
[7]
  Activity: 100%
[9]
  Resistant isolates: 0%
[10]
  Percent of isolates resistant: 0%
[11]
  Percent of isolates resistant: 0%
[12]
  Percent of isolates resistant: 0%

## GENTAMICIN
[13]
  Activity: 75.9%
[14]
  Activity: 62.9%
[15]
  Activity: 63.3%
[16]
  Activity: 74.9%
[17]
  Activity: 68.3%
[18]
  Activity: 29.4%
[19]
  Activity: 16.9%
[20]
  Activity: 19.5%
[21]
  Activity: 67.8%
[22]
  Activity: 65.4%
[23]
  Activity: 24.1%
[24]
  Activity: 37.1%
[25]
  Activity: 36.7%
[26]
  Activity: 25.1%
[27]
  Activity: 31.7%
[28]
  Activity: 70.6%
[29]
  Activity: 83.1%
[30]
  Activity: 80.5%
[31]
  Activity: 32.2%
[32]
  Activity: 34.6%
[33]
  MIC: > 500 µg/mL
  MIC90: > 500 µg/mL
[34]
  MIC: > 500 µg/mL
  MIC90: > 500 µg/mL
[35]
  MIC: > 500 µg/mL
  MIC90: > 500 µg/mL
[36]
  MIC: > 500 µg/mL
  MIC90: > 500 µg/mL
[37]
  MIC: > 500 µg/mL
  MIC90: > 500 µg/mL
[38]
  MIC: > 500 µg/mL
  MIC90: > 500 µg/mL
[39]
  MIC: > 500 µg/mL
  MIC90: > 500 µg/mL
[40]
  MIC: > 500 µg/mL
  MIC90: > 500 µg/mL
[41]
  MIC: > 500 µg/mL
  MIC90: > 500 µg/mL
[42]
  MIC: > 500 µg/mL
  MIC90: > 500 µg/mL

## CC1(C)S[C@@H]2[C@H](NC(=O)[C@H](N)c3ccccc3)C(=O)N2[C@H]1C(=O)O [AMPICILLIN]
[13]
  Activity: 3.4%
[14]
  Activity: 1%
[15]
  Activity: 1.5%
[16]
  Activity: 27.7%
[17]
  Activity: 12.7%
[18]
  Activity: 100%
[19]
  Activity: 100%
[20]
  Activity: 100%
[21]
  Activity: 99.9%
[22]
  Activity: 99.9%
[23]
  Activity: 96.6%
[24]
  Activity: 99%
[25]
  Activity: 98.5%
[26]
  Activity: 72.3%
[27]
  Activity: 87.3%
[28]
  Activity: 0%
[29]
  Activity: 0%
[30]
  Activity: 0%
[31]
  Activity: 0.1%
[32]
  Activity: 0.1%
[33]
  MIC90: > 256 µg/mL
[34]
  MIC90: > 256 µg/mL
[35]
  MIC90: > 256 µg/mL
[36]
  MIC90: 256 µg/mL (≈ 733 µM)
[37]
  MIC90: > 256 µg/mL
[38]
  MIC90: 2 µg/mL (≈ 5.72 µM)
[39]
  MIC90: 2 µg/mL (≈ 5.72 µM)
[40]
  MIC90: 2 µg/mL (≈ 5.72 µM)
[41]
  MIC90: 1 µg/mL (≈ 2.86 µM)
[42]
  MIC90: 1 µg/mL (≈ 2.86 µM)
